Data as given in US20180036420A1, “METHODS FOR ENHANCING THE DELIVERY OF MOLECULES ACROSS THE BLOOD BRAIN BARRIER” (LAM Therapeutics, Inc., priority 2016, published 2018).

Key:
[1] = system: PI(3,5)P2 in H4 neuroglioma cells; assay: Immunostaining of PI(3,5)P2 in H4 neuroglioma cells; format: cell-based, human; settings: after 24 h
Text: (§1) PIKfyve produces the lipid products PI(3,5)P2 and PI5P, which in turn serve to establish membrane identity and control endolysosomal dynamics. Studies have shown that the PI(3,5)P2 depletion arising from inhibition of PIKfyve produces a swollen endolysosome phenotype. […] This phenotype was reversible, and cell lines reverted to normal appearance within 3-4 days after drug removal.

[2] = system: H4 neuroglioma cells; assay: DIC imaging of endolysosomal (vacuole) phenotype in H4 neuroglioma cells; format: cell-based, human
Text: FIG. 4: Left: DIC images of H4 transduced with either non-targeting shRNA (control) or hairpin targeted to the PIKFYVE gene (shPIKFYVE). Right: Viability of H4 cells after the induction of either control or PIKFYVE shRNA with doxycycline.
as §1

[3] = system: comprehensive panel of kinases (456 kinases); assay: Kinase panel binding screen (456 kinases, PIKfyve not included); settings: screening concentration 1 μM
Text: Next, apilimod was screened against a comprehensive panel of kinases (PIKfyve not included).

Cc1cccc(/C=N/Nc2cc(N3CCOCC3)nc(OCCc3ccccn3)n2)c1 [apilimod]
decrease of PI(3,5)P2 [1]: ~70%
endolysosomal (vacuole) phenotype ([2]; H4 neuroglioma cells, 100 nM apilimod, 24 hrs (FIG. 3)): striking swollen endolysosomal (vacuole) phenotype
time to revert to normal appearance after drug removal ([2]; after drug removal): 3 to 4 days
binding to kinases of the panel [3]: did not bind to any of the 456 kinases tested
